From ChEMBL document CHEMBL3612056, “Mechanism studies on anti-HepG2 cell proliferation of phenanthroline derivatives as G-quadruplex DNA stabilizers” (Bioorg Med Chem Lett, 2015)
Activity calls are given as the source filed them. No cut-off for these calls is given here.

Key:
[1] = Stabilization of c-myc promoter G-quadruplex DNA (unknown origin)
DNA = test: Stabilization of human telomere promoter G-quadruplex DNA (unknown origin); assay type: nucleic-acid assay
HepG2 [2] = test: Cytotoxicity against human HepG2 cells assessed as reduction in cell viability incubated for 72 hrs by MTT assay; assay type: functional, cell-based; conditions: HepG2, 72 h
HeLa = test: Cytotoxicity against human HeLa cells assessed as reduction in cell viability incubated for 72 hrs by MTT assay; assay type: functional, cell-based
MCF7 = test: Cytotoxicity against human MCF7 cells assessed as reduction in cell viability incubated for 72 hrs by MTT assay; assay type: functional, cell-based; conditions: MCF7, 72 h
HepG2 [3] = test: Induction of cell cycle arrest in human HepG2 cells assessed as accumulation at G0/G1 phase at 4 uM incubated for 2 days by propidium iodide staining based flow cytometry method (reference value: 64.6%); assay type: functional
HepG2 [4] = test: Induction of cell cycle arrest in human HepG2 cells assessed as accumulation at S phase at 4 uM incubated for 2 days by propidium iodide staining based flow cytometry method (reference value: 24.65%); assay type: functional
HepG2 [5] = test: Induction of cell cycle arrest in human HepG2 cells assessed as accumulation at G2/M phase at 4 uM incubated for 2 days by propidium iodide staining based flow cytometry method (reference value: 10.75%); assay type: functional
HepG2 [6] = test: Induction of cell cycle arrest in human HepG2 cells assessed as accumulation at G0/G1 phase at 8 uM incubated for 2 days by propidium iodide staining based flow cytometry method (reference value: 64.6%); assay type: functional
HepG2 [7] = test: Induction of cell cycle arrest in human HepG2 cells assessed as accumulation at S phase at 8 uM incubated for 2 days by propidium iodide staining based flow cytometry method (reference value: 24.65%); assay type: functional
HepG2 [8] = test: Induction of cell cycle arrest in human HepG2 cells assessed as accumulation at G2/M phase at 8 uM incubated for 2 days by propidium iodide staining based flow cytometry method (reference value: 10.75%); assay type: functional
HepG2 [9] = test: Reduction in cyclin B1/CDK1 protein expression in human HepG2 cells incubated for 2 days by Western blot method; assay type: functional, cell-based
HepG2 [10] = test: Reduction in cyclin D1/CDK4 protein expression in human HepG2 cells incubated for 2 days by Western blot method; assay type: functional, cell-based
HepG2 [11] = test: Induction of apoptosis in human HepG2 cells by Annexin-V-FITC and propidium iodide staining based flow cytometry; assay type: functional, cell-based
HepG2 [12] = test: Induction of apoptosis in human HepG2 cells assessed as viable cells levels at 8 uM incubated for 2 days by Annexin-V-FITC and propidium iodide staining based flow cytometry (reference value: 97.9%); assay type: functional
HepG2 [13] = test: Induction of apoptosis in human HepG2 cells assessed as early apoptotic cells levels at 8 uM incubated for 2 days by Annexin-V-FITC and propidium iodide staining based flow cytometry (reference value: 0.3%); assay type: functional
HepG2 [14] = test: Induction of apoptosis in human HepG2 cells assessed as late apoptotic cells levels at 8 uM incubated for 2 days by Annexin-V-FITC and propidium iodide staining based flow cytometry (reference value: 0.5%); assay type: functional
HepG2 [15] = test: Induction of apoptosis in human HepG2 cells assessed as necrotic cells levels at 8 uM incubated for 2 days by Annexin-V-FITC and propidium iodide staining based flow cytometry (reference value: 1.4%); assay type: functional
HepG2 [16] = test: Induction of apoptosis in human HepG2 cells assessed as viable cells levels at 12 uM incubated for 2 days by Annexin-V-FITC and propidium iodide staining based flow cytometry (reference value: 97.9%); assay type: functional
HepG2 [17] = test: Induction of apoptosis in human HepG2 cells assessed as early apoptotic cells levels at 12 uM incubated for 2 days by Annexin-V-FITC and propidium iodide staining based flow cytometry (reference value: 0.3%); assay type: functional
HepG2 [18] = test: Induction of apoptosis in human HepG2 cells assessed as late apoptotic cells levels at 12 uM incubated for 2 days by Annexin-V-FITC and propidium iodide staining based flow cytometry (reference value: 0.5%); assay type: functional
HepG2 [19] = test: Induction of apoptosis in human HepG2 cells assessed as necrotic cells levels at 12 uM incubated for 2 days by Annexin-V-FITC and propidium iodide staining based flow cytometry (reference value: 1.4%); assay type: functional
HepG2 [20] = test: Induction of apoptosis in human HepG2 cells assessed as viable cells levels at 8 uM incubated for 3 days by Annexin-V-FITC and propidium iodide staining based flow cytometry (reference value: 89.3%); assay type: functional
HepG2 [21] = test: Induction of apoptosis in human HepG2 cells assessed as early apoptotic cells levels at 8 uM incubated for 3 days by Annexin-V-FITC and propidium iodide staining based flow cytometry (reference value: 2.9%); assay type: functional
HepG2 [22] = test: Induction of apoptosis in human HepG2 cells assessed as late apoptotic cells levels at 8 uM incubated for 3 days by Annexin-V-FITC and propidium iodide staining based flow cytometry (reference value: 3.9%); assay type: functional
HepG2 [23] = test: Induction of apoptosis in human HepG2 cells assessed as necrotic cells levels at 8 uM incubated for 3 days by Annexin-V-FITC and propidium iodide staining based flow cytometry (reference value: 3.8%); assay type: functional
HepG2 [24] = test: Induction of apoptosis in human HepG2 cells assessed as viable cells levels at 12 uM incubated for 3 days by Annexin-V-FITC and propidium iodide staining based flow cytometry (reference value: 89.3%); assay type: functional
HepG2 [25] = test: Induction of apoptosis in human HepG2 cells assessed as early apoptotic cells levels at 12 uM incubated for 3 days by Annexin-V-FITC and propidium iodide staining based flow cytometry (reference value: 2.9%); assay type: functional
HepG2 [26] = test: Induction of apoptosis in human HepG2 cells assessed as late apoptotic cells levels at 12 uM incubated for 3 days by Annexin-V-FITC and propidium iodide staining based flow cytometry (reference value: 3.9%); assay type: functional
HepG2 [27] = test: Induction of apoptosis in human HepG2 cells assessed as necrotic cells levels at 12 uM incubated for 3 days by Annexin-V-FITC and propidium iodide staining based flow cytometry (reference value: 3.8%); assay type: functional
HepG2 [28] = test: Reduction in c-Myc gene expression in human HepG2 cells at 2 to 16 uM incubated for 2 days by RT-PCR method; assay type: functional, cell-based
HepG2 [29] = test: Effect on TERT gene expression in human HepG2 cells at 2 to 16 uM incubated for 2 days by RT-PCR method; assay type: functional, cell-based
HepG2 [30] = test: Reduction in c-Myc protein expression in human HepG2 cells at 2 to 12 uM incubated for 2 days by Western blot method; assay type: functional, cell-based
HepG2 [31] = test: Reduction in TERT protein expression in human HepG2 cells at 2 to 12 uM incubated for 2 days by Western blot method; assay type: functional, cell-based
HepG2 [32] = test: Increase in p53 protein expression in human HepG2 cells at 8 and 12 uM incubated for 2 days by Western blot method; assay type: functional, cell-based
HepG2 [33] = test: Reduction in Sp1 protein expression in human HepG2 cells at 8 and 12 uM incubated for 2 days by Western blot method; assay type: functional, cell-based
HepG2 [34] = test: Inhibition of cell proliferation of human HepG2 cells at 0.5 uM incubated for 12 days by long-term cell growth inhibition assay; assay type: functional, cell-based
HepG2 [35] = test: Inhibition of telomeric DNA elongation in human HepG2 cells at 0.5 uM incubated for 17 days by telomere restriction fragment length assay; assay type: functional, cell-based
HepG2 [36] = test: Induction of cell cycle arrest in human HepG2 cells assessed as reduction in accumulation at S phase incubated for 2 days by propidium iodide staining based flow cytometry method; assay type: functional
HepG2 [37] = test: Induction of cell cycle arrest in human HepG2 cells assessed as reduction in accumulation at G2/M phase incubated for 2 days by propidium iodide staining based flow cytometry method; assay type: functional
HepG2 [38] = test: Induction of cell cycle arrest in human HepG2 cells assessed as increase in accumulation at G0/G1 phase incubated for 2 days by propidium iodide staining based flow cytometry method; assay type: functional
HepG2 [39] = test: Induction of cell cycle arrest in human HepG2 cells assessed as accumulation at G0/G1 phase at 4 uM incubated for 2 days by propidium iodide staining based flow cytometry method (reference value: 51.56%); assay type: functional
HepG2 [40] = test: Induction of cell cycle arrest in human HepG2 cells assessed as accumulation at S phase at 4 uM incubated for 2 days by propidium iodide staining based flow cytometry method (reference value: 27.05%); assay type: functional
HepG2 [41] = test: Induction of cell cycle arrest in human HepG2 cells assessed as accumulation at G2/M phase at 4 uM incubated for 2 days by propidium iodide staining based flow cytometry method (reference value: 21.39%); assay type: functional
HepG2 [42] = test: Induction of cell cycle arrest in human HepG2 cells assessed as accumulation at G0/G1 phase at 8 uM incubated for 2 days by propidium iodide staining based flow cytometry method (reference value: 51.56%); assay type: functional
HepG2 [43] = test: Induction of cell cycle arrest in human HepG2 cells assessed as accumulation at S phase at 8 uM incubated for 2 days by propidium iodide staining based flow cytometry method (reference value: 27.05%); assay type: functional
HepG2 [44] = test: Induction of cell cycle arrest in human HepG2 cells assessed as accumulation at G2/M phase at 8 uM incubated for 2 days by propidium iodide staining based flow cytometry method (reference value: 21.39%); assay type: functional
HepG2 [45] = test: Reduction in c-Myc protein expression in human HepG2 cells at 0.5 to 20 uM incubated for 2 days by Western blot method; assay type: functional, cell-based
HepG2 [46] = test: Reduction in TERT protein expression in human HepG2 cells at 0.5 to 20 uM incubated for 2 days by Western blot method; assay type: functional, cell-based

For `O=C(CCN1CCCC1)Nc1cccc(NC(=O)c2ccc3ccc4ccc(C(=O)Nc5cccc(NC(=O)CCN6CCCC6)n5)nc4c3n2)n1`, the Activity [1] was “Active”, the Activity (DNA) was “Active” and the IC50 (HepG2 [2]) was 1260 nM. For the same compound, the IC50 (HeLa) was 830 nM, the IC50 (MCF7) was 1570 nM and the Activity (HepG2 [3]) was 59.87%. For the same compound, the Activity (HepG2 [4]) was 26.82%, the Activity (HepG2 [5]) was 13.82% and the Activity (HepG2 [6]) was 42.26%. The Activity (HepG2 [7]) was 38.57%, the Activity (HepG2 [8]) was 19.17% and the inhibition (HepG2 [9]) was “Dose-dependent effect”. For the same compound, the inhibition (HepG2 [10]) was “Dose-dependent effect”, the Activity (HepG2 [11]) was “Dose-dependent effect” and the Activity (HepG2 [12]) was 84.2%. For the same compound, the Activity (HepG2 [13]) was 3.3%, the Activity (HepG2 [14]) was 7.5% and the Activity (HepG2 [15]) was 5%. It also gave an Activity (HepG2 [16]) of 81.7%, an Activity (HepG2 [17]) of 4.9% and an Activity (HepG2 [18]) of 8.2%. It also gave an Activity (HepG2 [19]) of 5.2%, an Activity (HepG2 [20]) of 33.7% and an Activity (HepG2 [21]) of 39.6%. It also gave an Activity (HepG2 [22]) of 17.4%, an Activity (HepG2 [23]) of 9.3% and an Activity (HepG2 [24]) of 31.6%. It also gave an Activity (HepG2 [25]) of 39.5%, an Activity (HepG2 [26]) of 18.7% and an Activity (HepG2 [27]) of 10.2%. For the same compound, the inhibition (HepG2 [28]) was “Active”, the Activity (HepG2 [29]) was “inactive” and the inhibition (HepG2 [30]) was “Active”. For the same compound, the inhibition (HepG2 [31]) was “Active”, the Activity (HepG2 [32]) was “Active” and the inhibition (HepG2 [33]) was “Dose-dependent effect”. For the same compound, the inhibition (HepG2 [34]) was “Active” and the inhibition (HepG2 [35]) was “inactive”.

In the case of `O=C(Nc1ccc(OCCN2CCCC2)cc1)c1ccc2ccc3ccc(C(=O)Nc4ccc(OCCN5CCCC5)cc4)nc3c2n1`, the Activity [1] is reported as “Active”, the Activity (DNA) is reported as “Active” and the IC50 (HepG2 [2]) is reported as 500 nM. The IC50 (HeLa) was 2100 nM, the IC50 (MCF7) was 2000 nM and the Activity (HepG2 [36]) was “Dose-dependent effect”. The Activity (HepG2 [37]) was “Dose-dependent effect”, the Activity (HepG2 [38]) was “Dose-dependent effect” and the Activity (HepG2 [39]) was 55.76%. The Activity (HepG2 [40]) was 25.69%, the Activity (HepG2 [41]) was 18.55% and the Activity (HepG2 [42]) was 64.97%. The Activity (HepG2 [43]) was 19.9%, the Activity (HepG2 [44]) was 15.13% and the inhibition (HepG2 [9]) was “Dose-dependent effect”. The inhibition (HepG2 [10]) was “Dose-dependent effect”, the Activity (HepG2 [11]) was “Dose-dependent effect” and the Activity (HepG2 [12]) was 78.4%. The Activity (HepG2 [13]) was 10.8%, the Activity (HepG2 [14]) was 5.4% and the Activity (HepG2 [15]) was 5.3%. The Activity (HepG2 [16]) was 65.1%, the Activity (HepG2 [17]) was 19.4% and the Activity (HepG2 [18]) was 9.5%. It also gave an Activity (HepG2 [19]) of 6%, an Activity (HepG2 [20]) of 28.2% and an Activity (HepG2 [21]) of 46.6%. The Activity (HepG2 [22]) was 20%, the Activity (HepG2 [23]) was 5.2% and the Activity (HepG2 [24]) was 14.4%. For the same compound, the Activity (HepG2 [25]) was 73.9%, the Activity (HepG2 [26]) was 10.7% and the Activity (HepG2 [27]) was 1.1%. The inhibition (HepG2 [28]) was “Active”, the Activity (HepG2 [29]) was “inactive” and the inhibition (HepG2 [45]) was “Active”. The inhibition (HepG2 [46]) was “Active”, the Activity (HepG2 [32]) was “Active” and the inhibition (HepG2 [33]) was “Dose-dependent effect”. For the same compound, the inhibition (HepG2 [34]) was “Active” and the inhibition (HepG2 [35]) was “inactive”.
